Measured values: publication PMC5028780, “Receptor and transporter binding and activity profiles of albiflorin extracted from Radix paeoniae Alba” (Scientific Reports, 2016)

Legend:
hDAT = biological target: T1, hDAT (Homo sapiens, UniProt Q01959); format: cell-based; conditions: HEK293 cell line, read-out: IC50 values, uptake of [3H]-DA (DAT)
T1 construct: expressed in transfected cells
Experimental: (§1) The uptake of 5-HT, NE and DA into HEK293 cells stably expressing human transporters was determined using methods previously described with slight modifications. Briefly, the culture medium was removed from cells, and the cells were washed once with phosphate-buffered saline. Krebs-Ringers-HEPES (KRH) assay buffer (100 μL/well, containing 120 mM NaCl, 4.7 mM KCl, 2.2 mM CaCl2, 1.2 mM MgSO4, 1.2 mM […], 10 mM HEPES, pH 7.4) was then added. Various concentrations of drugs were administered to cells in a 24-well plate. The uptake was initiated by the addition of [^3H]-5-HT (50 nM), [^3H]-NE (80 nM), or [^3H]-DA (50 nM). Uptake was terminated by five washes using cold KRH assay buffer after 10-min incubation at 37 °C. The cells were solubilised using 400 μL of scintillation fluid and counted using a Packard Top Count scintillation counter.
(§2) All data for inhibition curves were analysed by nonlinear regression using Prism software (GraphPad Software Inc., San Diego, CA) to determine IC50 values. For the microdialysis experiments, two-way repeated-measures ANOVA followed by Tukey’s test was used to compare the percentage increase over baseline between groups, time and treatment as independent factors, and time as the repeated factor.

hSERT = biological target: T2, hSERT (Homo sapiens, UniProt P31645); format: cell-based; conditions: HEK293 cell line, read-out: IC50 values, uptake of [3H]-5-HT (SERT)
T2 construct: expressed in transfected cells
Experimental: as §1, §2

DAT = biological target: T3, DAT (Rattus norvegicus, UniProt P23977); format: biochemical; conditions: Striatum synaptosome, read-out: IC50 values, uptake of [3H]-DA (DAT)
T3 construct: rat brain synaptosomes were prepared and treated with various concentrations of albiflorin; from tissue; host or cells: Sprague-Dawley rat striatal synaptosomes
Experimental: (§3) Male Sprague–Dawley rats were killed by asphyxiation with carbon dioxide and cervical dislocation followed by decapitation. The brains were removed quickly and the cerebral cortex, hypothalamus and striatum were dissected on ice. All dissected tissues were homogenised using a Teflon-glass tissue homogeniser in 4 mL of ice-cold sucrose (0.32 M). The homogenised tissue was centrifuged at 2,000× g for 10 min at 4 °C. […] Bio-Rad protein assay reagents (1:5 ratio) were used to analyse the protein concentration of the synaptosomal suspension. Uptake of 5-HT, NE and DA was determined as described previously. The compounds to be tested were dissolved in DMSO, further diluted with assay buffer, and tested over a 10-log unit concentration range in duplicate. Samples of 30–50 μg of synaptosomes (per sample in a total volume of 200 μL) were preincubated at 37 °C in a shaking water bath for 10 min. Vehicle or modifiers were then added for 10–20 min. Uptake was initiated by adding [^3H]-5-HT (20 nM), [^3H]-NE (20 nM), or [^3H]-DA (50 nM). After a 10-min incubation at 37 °C, uptake was terminated by filtration through (polyethyleneimine-coated) GF/B Whatman filters using a Brandel Cell Harvester (Brandel, Gaithersburg, MD).
(§4) All data for inhibition curves were analysed by nonlinear regression using Prism software (GraphPad Software Inc., San Diego, CA) to determine IC50 values. […]

NET = NET (Rattus norvegicus, UniProt Q63380); format: biochemical; conditions: Frontal cortex synaptosome, read-out: IC50 values, uptake of [3H]-NE (NET)
Experimental: as §3, §4

α2A = α2A (Rattus norvegicus, UniProt P22909); assay: CNS receptor binding, NE receptor α2A; conditions: Rat Cortex, [3H]-clonidine(2)
Experimental: Albiflorin (10 μM) was tested for numerous other potential binding targets by using standard receptor binding procedures. The tested targets included the following receptors: D1, D2, D3, D4, D5, 5-HT1A, 5-HT1B, 5-HT1D, 5-HT2a, 5-HT2C, 5-HT3, 5-HT5A, 5-HT6, 5-HT7, α1A, α1B, α2A, β1, M1, M2, M3, M4, M5, μ, κ, δ, A1, A2A, H1, H2, H3, H4.

Sequence of α2A (P22909 whole entry): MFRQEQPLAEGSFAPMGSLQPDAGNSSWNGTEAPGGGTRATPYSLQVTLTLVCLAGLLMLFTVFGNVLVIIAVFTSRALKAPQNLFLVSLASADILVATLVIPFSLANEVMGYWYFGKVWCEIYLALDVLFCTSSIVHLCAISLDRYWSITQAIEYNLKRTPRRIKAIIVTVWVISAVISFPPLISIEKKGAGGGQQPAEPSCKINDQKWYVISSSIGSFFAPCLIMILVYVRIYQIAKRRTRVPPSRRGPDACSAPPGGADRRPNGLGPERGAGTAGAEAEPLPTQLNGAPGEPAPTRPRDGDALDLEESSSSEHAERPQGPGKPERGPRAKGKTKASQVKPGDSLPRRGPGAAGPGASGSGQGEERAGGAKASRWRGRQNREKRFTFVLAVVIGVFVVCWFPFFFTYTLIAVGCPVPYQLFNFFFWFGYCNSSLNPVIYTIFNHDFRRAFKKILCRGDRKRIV
Sequence of NET (Q63380 1-617): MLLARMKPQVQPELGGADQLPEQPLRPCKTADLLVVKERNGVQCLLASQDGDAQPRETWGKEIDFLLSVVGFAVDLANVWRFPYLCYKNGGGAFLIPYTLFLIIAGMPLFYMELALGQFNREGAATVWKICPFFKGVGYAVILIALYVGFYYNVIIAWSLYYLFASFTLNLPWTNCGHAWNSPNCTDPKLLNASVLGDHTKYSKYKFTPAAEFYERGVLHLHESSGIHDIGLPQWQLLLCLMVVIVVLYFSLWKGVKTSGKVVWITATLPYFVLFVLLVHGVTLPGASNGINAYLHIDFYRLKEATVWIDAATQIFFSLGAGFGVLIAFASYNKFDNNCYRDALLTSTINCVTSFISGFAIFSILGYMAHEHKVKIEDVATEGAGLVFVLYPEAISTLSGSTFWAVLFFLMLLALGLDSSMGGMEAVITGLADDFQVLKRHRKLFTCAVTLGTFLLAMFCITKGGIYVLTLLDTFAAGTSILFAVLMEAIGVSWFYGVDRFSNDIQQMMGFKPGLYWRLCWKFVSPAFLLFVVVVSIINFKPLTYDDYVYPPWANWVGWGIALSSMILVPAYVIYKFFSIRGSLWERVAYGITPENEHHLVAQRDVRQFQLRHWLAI
T1 sequence (Q01959 whole entry): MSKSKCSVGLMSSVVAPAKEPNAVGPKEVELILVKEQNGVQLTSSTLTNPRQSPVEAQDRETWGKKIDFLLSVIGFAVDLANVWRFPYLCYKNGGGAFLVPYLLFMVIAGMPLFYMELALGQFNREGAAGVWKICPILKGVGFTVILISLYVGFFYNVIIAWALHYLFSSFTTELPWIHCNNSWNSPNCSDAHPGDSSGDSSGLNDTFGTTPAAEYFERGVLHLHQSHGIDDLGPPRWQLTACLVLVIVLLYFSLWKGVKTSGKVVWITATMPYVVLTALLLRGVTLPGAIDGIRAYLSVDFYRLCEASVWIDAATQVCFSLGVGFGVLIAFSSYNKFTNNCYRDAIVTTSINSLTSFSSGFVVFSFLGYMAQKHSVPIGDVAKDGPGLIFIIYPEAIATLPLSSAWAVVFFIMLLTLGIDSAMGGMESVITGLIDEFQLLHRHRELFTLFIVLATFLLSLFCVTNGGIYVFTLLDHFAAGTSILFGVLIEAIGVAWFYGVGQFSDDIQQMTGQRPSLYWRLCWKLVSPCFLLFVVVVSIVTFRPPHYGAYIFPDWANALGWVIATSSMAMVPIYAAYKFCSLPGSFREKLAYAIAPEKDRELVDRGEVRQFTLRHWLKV
T2 sequence (P31645 whole entry): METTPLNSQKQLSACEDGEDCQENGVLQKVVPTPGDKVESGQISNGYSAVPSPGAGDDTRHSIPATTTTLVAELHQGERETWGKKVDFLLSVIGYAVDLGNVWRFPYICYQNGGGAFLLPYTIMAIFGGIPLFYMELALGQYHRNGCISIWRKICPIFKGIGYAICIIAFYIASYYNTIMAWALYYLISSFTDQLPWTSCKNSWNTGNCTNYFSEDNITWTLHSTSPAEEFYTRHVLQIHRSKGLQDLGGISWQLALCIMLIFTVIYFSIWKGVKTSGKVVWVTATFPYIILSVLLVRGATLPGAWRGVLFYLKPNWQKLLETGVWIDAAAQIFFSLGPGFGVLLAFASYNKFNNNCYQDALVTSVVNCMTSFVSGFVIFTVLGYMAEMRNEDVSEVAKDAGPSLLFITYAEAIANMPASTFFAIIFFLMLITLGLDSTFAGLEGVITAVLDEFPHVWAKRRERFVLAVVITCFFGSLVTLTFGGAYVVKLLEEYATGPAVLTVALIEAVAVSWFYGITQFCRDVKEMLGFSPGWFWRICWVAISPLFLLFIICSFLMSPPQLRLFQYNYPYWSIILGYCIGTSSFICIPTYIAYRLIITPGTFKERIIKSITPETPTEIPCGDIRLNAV
T3 sequence (P23977 whole entry): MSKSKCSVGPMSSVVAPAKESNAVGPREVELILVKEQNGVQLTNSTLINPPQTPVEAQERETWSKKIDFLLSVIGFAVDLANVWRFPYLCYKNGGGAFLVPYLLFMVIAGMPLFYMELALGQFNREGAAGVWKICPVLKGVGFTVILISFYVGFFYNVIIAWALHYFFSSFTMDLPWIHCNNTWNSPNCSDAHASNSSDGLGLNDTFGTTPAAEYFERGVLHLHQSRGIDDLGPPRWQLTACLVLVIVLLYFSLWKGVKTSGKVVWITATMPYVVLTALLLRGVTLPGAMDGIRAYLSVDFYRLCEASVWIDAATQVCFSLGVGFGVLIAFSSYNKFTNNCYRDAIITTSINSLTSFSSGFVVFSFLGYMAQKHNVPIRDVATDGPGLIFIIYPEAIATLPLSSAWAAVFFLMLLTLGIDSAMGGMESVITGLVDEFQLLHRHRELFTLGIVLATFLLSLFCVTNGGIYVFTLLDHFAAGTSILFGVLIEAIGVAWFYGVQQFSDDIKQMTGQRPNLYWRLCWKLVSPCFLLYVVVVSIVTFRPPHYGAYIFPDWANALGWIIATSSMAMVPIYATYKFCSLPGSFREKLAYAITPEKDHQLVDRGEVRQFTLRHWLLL

Work on `C[C@]12C[C@@H](O)[C@@H]3C[C@@]1(O[C@@H]1O[C@H](CO)[C@@H](O)[C@H](O)[C@H]1O)[C@@]3(COC(=O)c1ccccc1)C(=O)O2` [albiflorin, Albiflorin] yielded an IC50 (hDAT) of 2240 ± 25 nM, an IC50 (hSERT) of 2.36 ± 0.74 nM and an IC50 (DAT) of 3690 ± 114 nM. For the same compound, the IC50 (NET) was 0.98 ± 0.24 nM, the “% Inhibition of binding at 10 μM albiflorin” value (α2A) was 36.66% and the IC50 (α2A; read-out: IC50 values for albiflorin) was over 10000 nM.
